Test results from patent US11484607B2, “PSMA-targeted NIR dyes and their uses” (On Target Laboratories, LLC, priority 2015, dated 2022).

What was measured:
22Rv1 tumor xenografts = assay: Fluorescence-guided surgery of prostate tumors with OTL78; format: in vivo, mice
Procedure: Growth of the tumors was measured as previously mentioned. After one month, the animals were mixed and divided into 2 groups (n=5 mice/group). Two hours after administering OTL78 (10 nmol in 100 μL saline per mouse), animals were given 1-5% isoflurane for anesthesia and imaged using AMI image system. After an insertion was made using scalpel through the skin, surgical removal of the tumors was performed either following conventional technique (e.g. visualization under white light or palpation) or with the aid of fluorescence guidance (FGS: debulking of visible tumors under conventional method followed by resection of residual fluorescence tissues under image-guided method). After the surgery, the skin was closed using staples and imaged the mice using AMI image system. After imaging, the residual fluorescent tissues from selected mice of conventional surgery group and tissues samples from the tumor beds of selected mice of FGS group were submit for pathological (IHC) analysis. Response to surgical treatment was monitored for over 30 days by imaging using AMI image system 2 h after injecting OTL78 (10 nmol/mouse) and by measuring the growth of the tumor volume using a caliper. Any animal with tumor volume ≥1000 mm3 were euthanized. Tumor-free survival of the mice was documented as % survival vs. time using GraphPad Prism 6. IHC studies were done as explained bellow in the Safety Studies.

A549 tumor xenografts = assay: OTL78 whole body imaging and tissue biodistribution, subcutaneous tumor; format: in vivo, mice; conditions: 10 nmol, 2 h
Procedure: (§3) Whole body Imaging & Tissue biodistribution: Seven-week-old male nu/nu mice were inoculated subcutaneously with 5.0×106 22Rv1, LNCaP, PC3 or A549 cells/mouse in 50% high concentrated matrigel with RPMI1640 medium on the shoulder. Growth of the tumors was measured in perpendicular directions every 2 days using a caliper (body weights were monitored on the same schedule), and the volumes of the tumors were calculated as 0.5×L×W2 (L=longest axis and W=axis perpendicular to L in millimeters). Once tumors reached approximately 300-400 mm3 in volume, animals (3-5 mice/group) were intravenously injected with appropriate dose of OTL78 in saline.
(§4) For whole body imaging and biodistribution studies, animals were euthanized after 2 h of administration of OTL78 by CO2 asphyxiation. For time dependent studies, animals were imaged under anesthesia using isoflurane. Imaging experiments were then performed using IVIS or AMI image systems. Following whole body imaging, animals were dissected and selected tissues were analyzed for fluorescence activity using IVIS or AMI image system and ROI of the tissues were calculated using Living Image 4.0 software or AMIView Image Analysis Software.

PSMA-negative PC3 cells = assay: OTL78 binding to PSMA-negative cells, cell bound fluorescence by fluorometer; parameters: species or system human; conditions: 30 min at 4° C.
Procedure: (§1) For OTL78 binding affinity, 22Rv1 or PC3 cells were seeded into a T75 flask and allowed to form a monolayer over 48 h. After trypsin digestion, cells were transferred into centrifuge tubes (1×10^6 cells/tube) and centrifuged. The medium was replaced with fresh medium containing increasing concentration of OTL78 and incubated for 30 min at 4° C. After rinsing with fresh medium (2×1.0 mL) and saline (1×1.0 mL), cells were lysed with 1% SDS with in saline (1.0 mL) and cell bound fluorescence was analyzed using a fluorometer (Cary Eclipse, Agilent Technologies). The binding affinity (Kd) was calculated using a plot of percent cell bound fluorescence versus concentration using GraphPad Prism 6.

[1] = Safety study of OTL78 (body weight, histopathology, clinical pathology)
Procedure: Safety Study: Seven-week-old healthy male Balb/c (5 mice/group) were administered with 6 μmol of freshly prepared OTL78 or saline dissolved in 100 μL of saline via tail vein injection on day zero. Body weights and clinical observations were monitored prior to dosing and daily thereafter from day zero to 14.
For immunohistopathology (IHC) studies, the animals were euthanized by CO2 asphyxiation on the day 14 and selected tissues (brain, heart, lung, liver, spleen, kidney, stomach, small intestine, large intestine, muscle, and skin) were collected into vials containing 4% formalin. Formalin fixed tissues were sectioned into 10 μm thick sections and mounted onto Superfrost Plus™ slides (Fisher Scientific, Pittsburgh Pa.). After staining the slides with H&E, IHC analysis of the tissues was conducted to determine to the toxicity of OTL78.
For clinical pathology studies, the animals were euthanized by CO2 asphyxiation on the day 14 and blood was collected to heparin by cardiac punch and blood work analysis was conducted at Purdue clinical pathology lab.

[2] = Excitation and emission spectra by fluorometer; format: physicochemical; conditions: same concentration, 1 μM in 1 mL of PBS
Procedure: FIG. 38B—Excitation (Ex) & emission (Em) spectra of OTL78 (1 μM) and S0456 (1 μM) in 1 mL of PBS obtained using fluorometer.
Results and Conclusions: In an effort to improve limitations in current clinical practice of radical prostatectomy and tumor-specific imaging agents that are in the preclinical stages, OTL78 was assembled using: (i) a high affinity PSMA-targeting ligand (coined DUPA), (ii) a rationally designed 14 atoms long polyethylene glycol-dipeptide linker, and (iii) an inexpensive NIR dye ([…]) named S0456 (see FIG. 38A for the chemical structure). The dipeptide consisting of phenylalanine-tyrosine was designed to fit to the contours and chemistry of the tunnel accessing the binding pocket of the PSMA protein.

PSMA on 22Rv1 cells [3] = molecular target: T1, PSMA on 22Rv1 cells (Homo sapiens, UniProt Q04609); assay: OTL78 relative affinity (IC50) by competition with DUPA-FITC; format: binding; conditions: 100 nM DUPA-FITC, 30 min at 4° C., flow cytometer; read-out: IC50 competing with DUPA-FITC
T1 construct: host or cells: 22Rv1 human prostate cancer cells
Procedure: In vitro binding: For OTL78 relative affinity (IC50), 22Rv1 or PC3 cells were plated into a T75 flask and allowed to form a monolayer over 48 h. After trypsin digestion, released cells were transferred into centrifuge tubes (1×10^6 cells/tube) and centrifuged. Spent medium in each tube was replaced with 100 nM DUPA-FITC in the presence of increasing concentration (0.001 nM-10 μM) of OTL78 in fresh medium (0.5 mL). After incubating for 30 min at 4° C., cells were rinsed with culture medium (2×1.0 mL) and saline (1×1.0 mL) to remove any unbound DUPA-FITC. Cells were then re-suspended in saline (0.5 mL) and cell bound fluorescence was quantified using a flow cytometer. The relative affinities were calculated using a plot of percent cell bound fluorescence versus the log concentration of OTL78 using GraphPad Prism 6.

22Rv1 cells = assay: Binding and internalization of OTL78 by epifluorescence microscopy; format: cell-based, human; conditions: 100 nM, 1 h
Procedure: (§2) Confocal Microscopy: 22Rv1, LNCaP, or PC3 cells (50,000 cells/well in 1 mL) were seeded into poly-D-lysine microwell Petri dishes and allowed cells to form monolayers over 12 h. Spent medium was replaced with fresh medium containing OTL78 (100 nM) and cells were incubated for 1 h at 37° C. or 4° C. After rinsing with fresh medium (2×1.0 mL) and saline (lx 1.0 mL), fluorescence images were acquired using an epi-microscopy.

PC3 cells = assay: as above; format: cell-based, human; conditions: 100 nM, 1 h
Procedure: as §2

LNCaP cells = assay: as above; format: cell-based, human; conditions: 100 nM, 1 h
Procedure: as §2

LNCaP tumor xenografts = assay: OTL78 whole body imaging and tissue biodistribution, subcutaneous tumor; format: in vivo, mice; conditions: 10 nmol, 2 h
Procedure: as §3, §4

PSMA on 22Rv1 cells [4] = molecular target: T1, PSMA on 22Rv1 cells; assay: OTL78 binding affinity (Kd), cell bound fluorescence by fluorometer; conditions: 30 min at 4° C.
Procedure: as §1

[5] = Concentration dependent UV spectrometric study of higher order aggregates; format: physicochemical; conditions: 75 μM in saline
Procedure: Possible OTL78-related hypersensitivity in human was next examined using basophil activation assay. Drug related hypersensitivity is mainly due to immune response caused by cross-linking of immunoglobulin E (IgE) expressed on mast cells and basophils (FIG. 47D) resulting in activation and subsequent degranulation to release vasoactive amines, prostaglandins, and cytokines (29). Since cross-linking of IgE can be due to aggregates, concentration dependent UV spectrometric studies were conducted to determine higher order aggregates of OTL78.

T1 sequence (Q04609 whole entry): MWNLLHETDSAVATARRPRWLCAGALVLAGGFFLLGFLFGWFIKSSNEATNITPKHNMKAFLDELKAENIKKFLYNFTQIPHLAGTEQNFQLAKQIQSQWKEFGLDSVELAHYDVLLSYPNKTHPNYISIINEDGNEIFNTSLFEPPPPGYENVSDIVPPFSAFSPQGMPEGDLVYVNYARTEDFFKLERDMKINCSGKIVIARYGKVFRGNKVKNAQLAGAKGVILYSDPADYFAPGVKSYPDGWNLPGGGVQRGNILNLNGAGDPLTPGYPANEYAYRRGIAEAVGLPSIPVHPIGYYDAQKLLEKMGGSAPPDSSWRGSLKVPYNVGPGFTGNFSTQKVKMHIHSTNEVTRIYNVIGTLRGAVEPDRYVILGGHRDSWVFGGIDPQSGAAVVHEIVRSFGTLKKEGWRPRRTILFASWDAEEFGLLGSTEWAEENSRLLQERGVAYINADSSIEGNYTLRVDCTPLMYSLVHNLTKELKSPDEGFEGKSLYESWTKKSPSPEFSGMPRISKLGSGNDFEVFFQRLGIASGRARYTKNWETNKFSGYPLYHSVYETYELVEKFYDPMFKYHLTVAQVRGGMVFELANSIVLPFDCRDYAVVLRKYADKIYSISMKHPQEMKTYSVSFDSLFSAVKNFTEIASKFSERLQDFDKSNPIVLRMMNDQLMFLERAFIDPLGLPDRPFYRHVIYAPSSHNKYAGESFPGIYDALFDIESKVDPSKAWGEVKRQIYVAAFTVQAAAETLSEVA

SMILES: CC1(C)C(/C=C/C2=C(Oc3ccc(C[C@H](NC(=O)[C@H](Cc4ccccc4)NC(=O)CCOCCOCCNC(=O)CC[C@H](NC(=O)N[C@@H](CCC(=O)O)C(=O)O)C(=O)O)C(=O)O)cc3)C(=C/C=C3/N(CCCCS(=O)(=O)O)c4ccc(S(=O)(=O)O)cc4C3(C)C)/CCC2)=[N+](CCCCS(=O)(=O)[O-])c2ccc(S(=O)(=O)O)cc21 [OTL78]
- time to localize 22Rv1 tumors with high contrast (22Rv1 tumor xenografts; 10 nmol, preoperative images): ≤ 2 h
- postoperative residual fluorescence in the tumor bed, FGS cohorts (22Rv1 tumor xenografts; 10 nmol, surgery at 2 h): no significant fluorescence
- biochemical recurrence (BCR), FGS cohort (22Rv1 tumor xenografts; monitored for over a month): no sign of BCR
- survival, FGS cohorts (22Rv1 tumor xenografts; over 30 days): survived during the study
- residual tumors in tumor margin/bed tissues, FGS cohorts (22Rv1 tumor xenografts; pathological analysis): no residual tumors
- fluorescence intensity of A549 tumors compared to 22Rv1 tumors (A549 tumor xenografts): ~6 folds less
- binding to PSMA-negative PC3 cells (PSMA-negative PC3 cells): did not bind
- body weight change over the course of the study ([1]; 6 μmol/mouse (600× of normal dose), day zero to 14): < 5 % increase
- clinical pathology analysis on blood samples ([1]; 6 μmol/mouse, day 14): No noticeable toxicities
- pathological changes in H&E staining of tissues ([1]; 6 μmol/mouse, day 14): no obvious pathological changers
- enhancement of the fluorescence of S0456 [2]: ≥ 2
- IC50 (PSMA on 22Rv1 cells [3]): 7 nM
- labelling of 22Rv1 cells (22Rv1 cells): able to efficiently label
- labelling of PC3 cells (PC3 cells): not PC3 cells
- labelling of LNCaP cells (LNCaP cells): able to efficiently label
- accumulation in LNCaP tumors (LNCaP tumor xenografts): accumulated predominantly
- Kd (PSMA on 22Rv1 cells [4]): 4.7 nM
- higher order aggregates (UV spectra), in words [5]: no noticeable higher order aggregates
